24 compounds from US20170226120A1, “INHIBITORS OF HIF PROLYL HYDROXYLASE” (MERCK SHARP & DOHME CORP., priority 2014, published 2017) can be followed below.

The assay addresses T1, human HIF-PHD2 (Homo sapiens, UniProt Q9GZT9).
T1 construct: FLAG-tagged full length PHD2 expressed in and purified from baculovirus-infected Sf9 cells; FLAG; made in house; host or cells: baculovirus-infected Sf9 cells
Kind of assay: HIF-PHD2 inhibition, time resolved fluorescence assay of HIF-1α peptide hydroxylation. It counts as biochemical. The conditions noted are these: FLAG-tagged full length PHD2; 0.2 μM 2-oxoglutarate, 0.5 μM HIF-1α peptide. The method, then: To each well of a 384-well plate, 1 μL of test compounds in DMSO (final concentration ranging from 0.3 nM to 10 uM) were added into 20 μl of assay buffer (50 mM Tris pH 7.4/0.01% Tween-20/0.1 mg/ml bovine serum albumin/10 μM ferrous sulfate/1 mM sodium ascorbate/20 μg/ml catalase) containing 0.15 μg/ml FLAG-tagged full length PHD2 expressed in and purified from baculovirus-infected Sf9 cells. After a 5 min preincubation at room temperature, the enzymatic reactions were initiated by the addition of 4 μL of substrates {final concentrations of 0.2 μM 2-oxoglutarate and 0.5 μM HIF-1α peptide biotinyl-[…] […] After incubation for 45 minutes at room temperature, the reactions were terminated by the addition of a 25 μL quench/detection mix to a final concentration of 1 mM ortho-phenanthroline, 0.1 mM EDTA, 0.5 nM anti-(His)6 LANCE reagent (Perkin-Elmer Life Sciences), 100 nM AF647-labeled streptavidin (Invitrogen), and 2 μg/ml (His)6-VHL complex {S. Tan Protein Expr. Purif.

SMILES strings stand for the structures.

What is called IC50 is the concentration that inhibits the measured activity by half. Low readings indicate greater potency in that assay, high ones weaker potency in that assay.

T1 sequence (Q9GZT9 whole entry): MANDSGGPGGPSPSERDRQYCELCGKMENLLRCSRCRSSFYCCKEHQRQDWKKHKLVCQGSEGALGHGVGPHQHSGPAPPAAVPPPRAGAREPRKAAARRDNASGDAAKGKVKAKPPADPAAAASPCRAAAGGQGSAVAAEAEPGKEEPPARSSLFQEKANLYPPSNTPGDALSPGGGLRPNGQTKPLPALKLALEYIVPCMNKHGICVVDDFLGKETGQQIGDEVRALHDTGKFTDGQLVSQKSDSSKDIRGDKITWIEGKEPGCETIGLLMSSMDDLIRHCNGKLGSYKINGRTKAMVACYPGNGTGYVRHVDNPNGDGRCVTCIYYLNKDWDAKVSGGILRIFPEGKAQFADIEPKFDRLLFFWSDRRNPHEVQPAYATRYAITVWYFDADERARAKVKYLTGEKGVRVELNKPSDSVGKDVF

`N#Cc1ccc(Cn2c3c(c(O)c(C(=O)NCC(=O)O)c2=O)COC3)c(F)c1` [Example 13, 2-(1-(4-cyano-2-fluorobenzyl)-4-hydroxy-2-oxo-1,2,5,7-tetrahydrofuro[3,4-b]pyridine-3-carboxamido)acetic acid] gave a 50% inhibitory concentration (IC50) of 3 nM. Under `N#Cc1ccc(Cn2c3c(c(O)c(C(=O)NCC(=O)O)c2=O)COC3)cc1F` [Example 53, 2-(1-(4-cyano-3-fluorobenzyl)-4-hydroxy-2-oxo-1,2,5,7-tetrahydrofuro[3,4-b]pyridine-3-carboxamido)acetic acid] stands 7.1 nM; under `O=C(O)CNC(=O)c1c(O)c2c(n(Cc3cnco3)c1=O)COC2` [Example 20, 2-(4-hydroxy-1-(oxazol-5-ylmethyl)-2-oxo-1,2,5,7-tetrahydrofuro[3,4-b]pyridine-3-carboxamido)acetic acid], 7.4 nM; under `CCc1ccc(Cn2c3c(c(O)c(C(=O)NCC(=O)O)c2=O)COC3)cn1` [Example 63, 2-(4-Hydroxy-2-oxo-1-((6-ethylpyridin-3-yl)methyl)-1,2,5,7-tetrahydrofuro[3,4-b]pyridine-3-carboxamido)acetic acid], 5.4 nM. The value for `COc1ccc(Cn2c3c(c(O)c(C(=O)NCC(=O)O)c2=O)COC3)cn1` [Example 51, 2-(4-hydroxy-1-((6-methoxypyridin-3-yl)methyl)-2-oxo-1,2,5,7-tetrahydrofuro[3,4-b]pyridine-3-carboxamido)acetic acid] was 6.8 nM; that for `CNC(=O)c1ccc(Cn2c3c(c(O)c(C(=O)NCC(=O)O)c2=O)COC3)cc1` [Example 23, 2-(4-hydroxy-1-(4-(methylcarbamoyl)benzyl)-2-oxo-1,2,5,7-tetrahydrofuro[3,4-b]pyridine-3-carboxamido)acetic acid] was 10 nM; that for `Cn1ccc(Cn2c3c(c(O)c(C(=O)NCC(=O)O)c2=O)COC3)n1` [Example 16, 2-(4-hydroxy-1-((1-methyl-1H-pyrazol-3-yl)methyl)-2-oxo-1,2,5,7-tetrahydrofuro[3,4-b]pyridine-3-carboxamido)acetic acid] was 7.1 nM.

As for `O=C(O)CNC(=O)c1c(O)c2c(n(Cc3ccc(C(=O)O)cc3)c1=O)COC2` [Example 57, 4-((3-((Carboxymethyl)carbamoyl)-4-hydroxy-2-oxofuro[3,4-b]pyridin-1(2H,5H,7H)-yl)methyl)benzoic acid], half-maximal inhibition (IC50) required 7.2 nM. The value for `CCn1c2c(c(O)c(C(=O)NCC(=O)O)c1=O)COC2` [Example 54, 2-(1-ethyl-4-hydroxy-2-oxo-1,2,5,7-tetrahydrofuro[3,4-b]pyridine-3-carboxamido)acetic acid] was 17.4 nM.

The compound `C[C@H](NC(=O)c1c(O)c2c(n(Cc3ccc(C(F)(F)F)cc3)c1=O)COC2)C(=O)O` [Example 3, (S)-2-(4-hydroxy-2-oxo-1-(4-(trifluoromethyl)benzyl)-1,2,5,7-tetrahydrofuro[3,4-b]pyridine-3-carboxamido)propanoic acid] showed a concentration for half-maximal inhibition (IC50) of 36.4 nM.

In turn, `O=C(O)CNC(=O)c1c(O)c2c(n(Cc3cccc(C(=O)O)c3)c1=O)COC2` [Example 59, 3-((3-((carboxymethyl)carbamoyl)-4-hydroxy-2-oxofuro[3,4-b]pyridin-1(2H,5H,7H)-yl)methyl)benzoic acid] yielded an IC50 of 8 nM. The value for `O=C(O)CNC(=O)c1c(O)c2c(n(Cc3cccc(Cl)c3)c1=O)COC2` [Example 38, 2-(1-(3-chlorobenzyl)-4-hydroxy-2-oxo-1,2,5,7-tetrahydrofuro[3,4-b]pyridine-3-carboxamido)acetic acid] was 4.3 nM; that for `COc1ccc(Cn2c3c(c(O)c(C(=O)NCC(=O)O)c2=O)COC3)cc1` [Example 28, 2-(4-hydroxy-1-(4-methoxybenzyl)-2-oxo-1,2,5,7-tetrahydrofuro[3,4-b]pyridine-3-carboxamido)acetic acid] was 2.8 nM; that for `O=C(O)CNC(=O)c1c(O)c2c(n(Cc3ccc4[nH]cnc4c3)c1=O)COC2` [Example 65, 2-(1-((1H-Benzo[d]imidazol-5-yl)methyl)-4-hydroxy-2-oxo-1,2,5,7-tetrahydrofuro[3,4-b]pyridine-3-carboxamido)acetic acid] was 11.8 nM.

`O=C(O)CNC(=O)c1c(O)c2c(n(Cc3ccccc3C(=O)O)c1=O)COC2` [Example 58, 2-((3-((carboxymethyl)carbamoyl)-4-hydroxy-2-oxofuro[3,4-b]pyridin-1(2H,5H,7H)-yl)methyl)benzoic acid]: the IC50 is 17.4 nM.

For the compound `COC(=O)c1ccccc1Cn1c2c(c(O)c(C(=O)NCC(=O)O)c1=O)COC2` [Example 39, 2-(4-hydroxy-1-(2-(methoxycarbonyl)benzyl)-2-oxo-1,2,5,7-tetrahydrofuro[3,4-b]pyridine-3-carboxamido)acetic acid], the IC50 is 19.7 nM.

As to `O=C(N[C@@H](CO)C(=O)O)c1c(O)c2c(n(Cc3ccc(C(F)(F)F)cc3)c1=O)COC2` [Example 2, (S)-3-hydroxy-2-(4-hydroxy-2-oxo-1-(4-(trifluoromethyl)benzyl)-1,2,5,7-tetrahydrofuro[3,4-b]pyridine-3-carboxamido)propanoic acid], the half-inhibitory concentration (IC50) was 109 nM. Regarding `Cc1cc(C(=O)O)ccc1-c1ccc(Cn2c3c(c(O)c(C(=O)NCC(=O)O)c2=O)COC3)cc1` [Example 64, 4′-((3-((Carboxymethyl)carbamoyl)-4-hydroxy-2-oxofuro[3,4-b]pyridin-1(2H,5H,7H)-yl)methyl)-2-methyl-[1,1′-biphenyl]-4-carboxylic acid], the half-inhibitory concentration (IC50) is 1.2 nM.

Regarding `O=C(O)CNC(=O)c1c(O)c2c(n(Cc3cncc(F)c3)c1=O)COC2` [Example 10, 2-(1-((5-fluoropyridin-3-yl)methyl)-4-hydroxy-2-oxo-1,2,5,7-tetrdhydrofuro[3,4-b]pyridine-3-carboxamido)acetic acid], the midpoint of inhibition, the IC50, lay at 5.7 nM. The compound `Cc1cc(Cn2c3c(c(O)c(C(=O)NCC(=O)O)c2=O)COC3)ccc1C#N` [Example 44, 2-(1-(4-cyano-3-methylbenzyl)-4-hydroxy-2-oxo-1,2,5,7-tetrahydrofuro[3,4-b]pyridine-3-carboxamido)acetic acid] returned an IC50 of 3.1 nM. Compound `O=C(O)CNC(=O)c1c(O)c2c(n(Cc3ccccc3F)c1=O)COC2` [Example 35, 2-(1-(2-fluorobenzyl)-4-hydroxy-2-oxo-1,2,5,7-tetrahydrofuro[3,4-b]pyridine-3-carboxamido)acetic acid] returned an IC50 of 4.6 nM. In the case of `C=Cc1ccc(Cn2c3c(c(O)c(C(=O)NCC(=O)O)c2=O)COC3)cn1` [Example 62, 2-(4-Hydroxy-2-oxo-1-((6-vinylpyridin-3-yl)methyl)-1,2,5,7-tetrahydrofuro[3,4-b]pyridine-3-carboxamido)acetic acid], it took 3.7 nM to reach half-maximal inhibition (IC50).

`O=C(O)CNC(=O)c1c(O)c2c(n(Cc3cccnc3)c1=O)COC2` [Example 37, 3-((3-((carboxymethyl)carbamoyl)-4-hydroxy-2-oxofuro[3,4-b]pyridin-1(2H,5H,7H)-yl)methyl)pyridin-1-ium chloride] returned an IC50 of 3.3 nM. Regarding `O=C(O)CNC(=O)c1c(O)c2c(n(Cc3ccc4ccccc4c3)c1=O)COC2` [Example 47, 2-(4-hydroxy-1-(naphthalen-2-ylmethyl)-2-oxo-1,2,5,7-tetrahydrofuro[3,4-b]pyridine-3-carboxamido)acetic acid], 6.8 nM corresponded to half-maximal inhibition (IC50).
